17 molecules from patent US6251903A, “Alkyl, azido, alkoxy, and fluoro-substituted and fused quinoxalinediones and the use thereof as glycine receptor antagonist” (priority 2000, dated 2001) can be followed below.

Assay [1] addresses NMDA receptor glycine sites. The assay is described as follows: electrophysiological assay, cloned rat NMDA receptors expressed in Xenopus oocytes. In kind it is cell-based. Particulars: Table II; from electrophysiology using Xenopus oocytes. The source says:
(§1) The binding affinities of quinoxaline-2,3-diones at NMDA receptor glycine sites also were estimated by electrophysiological assays with either cloned rat NMDA receptors expressed in Xenopus oocytes, or non-NMDA receptors expressed in oocytes by whole rat brain poly(A)^+ RNA. […] For NMDA receptors Ki values were approximated by averaging values at three subtype combinations (NR1A/NR2A, NR1A/NR2B, and NR1A/NR2C).

Another assay deals with glycine binding site (Rattus norvegicus, UniProt P35439). Kind of assay: affinity for the glycine binding site / glycine/NMDA receptor (Ki; method not stated).
Source text: as §1

In the next assay the test system is mice. The assay is described as follows: anticonvulsant activity in maximum electroshock seizure (MES) experiments in mice. In kind it is in vivo, male Swiss/Webster mice. Particulars: for ED50 / ED100: Mus musculus; for ED50: read-out: ED50 (MES). On the procedure:
The seizure stimulus parameters were: 50 mA, 60 Hz, rectangular pulse, width 0.8 msec, duration 200 msec. Tonic hind limb extension observed after application of the electrical stimulus was recorded as occurrence of seizure. The drug was applied i.v. as an aqueous Tris (Tromethamine) solution.

Like-named read-outs stand apart in the source and are kept apart here.

By Ki is commonly meant the dissociation constant of the complex between target and ligand, obtained from inhibition or displacement. Turning to `O=c1[nH]c2cc3ccccc3cc2[nH]c1=O` [H CH=CHCH=CH H, 1,4-dihydrobenzo[g]quinoxaline-2,3-dione], the Ki in assay [1] was determined as 11 µM.
A word on the ED50: it is the dose at which the effect has come halfway, by size or by number of responders. Regarding `Oc1nc2cc(F)c(Cl)c(F)c2nc1O` [F Cl F H, 6-Chloro-5,7-difluoro-1,4-dihydroquinoxaline-2,3-dione], the inhibition constant Ki at glycine binding site stood at 1 µM. Also, in the assay on mice (iv, Table III, i.v. injection), the ED50 is 10 mg/kg.
With `O=[N+]([O-])c1ccc2nc(O)c(O)nc2c1` [NO2, reference compound], the inhibitory constant (Ki) on glycine binding site (Table I, read-out: Ki) is 1.39 µM.
Take `O=c1[nH]c2cc(F)c(Cl)c([N+](=O)[O-])c2[nH]c1=O` [NO2 Cl F H, 6-Chloro-1,4-dihydro-7-fluoro-5-nitroquinoxaline-2,3-dione]: the Ki at glycine binding site (Table III, read-out: Ki) worked out at 0.18 µM. In addition, the median effective dose (ED50) in the assay on mice (iv, Table III, i.v. injection) was in the range of 4 to 5 mg/kg.
Consider `O=c1[nH]c2cc(Cl)c(F)c([N+](=O)[O-])c2[nH]c1=O` [NO2 F Cl H, 7-Chloro-6-fluoro-5-nitro-1,4-dihydroquinoxaline-2,3-dione], for which the Ki on glycine binding site (Table III, read-out: Ki) turned out to be 0.07 µM. Further, in the assay with mice (iv, Table III, i.v. injection), the median effective dose (ED50) is 0.9 mg/kg.
Regarding `O=c1[nH]c2cc(Cl)cc(C(F)(F)F)c2[nH]c1=O` [CF3 H Cl H], on glycine binding site (Table IV, read-out: Ki), the Ki turned out to be 0.395 µM. Also, in the assay on mice (Table IV, i.v.), the ED100 came out at 30 mg/kg, the ED50 was found to be 10 mg/kg and the “IV peak of action” value is reported as 30 min. Also, the “% protection after 60 min.” value in the assay with mice (i.v., 30 mg/kg) was 87%.
Regarding `O=c1[nH]c2cc(C(F)(F)F)cc(Cl)c2[nH]c1=O` [Cl H CF3 H], the Ki on glycine binding site (Table IV, read-out: Ki) was determined as 0.32 µM. In the assay with mice (Table IV, i.v.), the ED100 was in the range of 20 to 25 mg/kg, the ED50 came out at 10 mg/kg and the “IV peak of action” value was 15 min. Moreover, in the assay on mice (i.v., 20 mg/kg), the “% protection after 60 min.” value is on record as 62%.
In the case of `O=c1[nH]c2ccc(F)cc2[nH]c1=O` [F, reference compound], the Ki at glycine binding site (Table I, read-out: Ki) came to 2.88 µM.
For `Nc1ccc2[nH]c(=O)c(=O)[nH]c2c1` [NH2, reference compound], the Ki result on glycine binding site (Table I) was “inactive”.
On to `N#Cc1ccc2nc(O)c(O)nc2c1` [CN, reference compound], for which the Ki at glycine binding site (Table I, read-out: Ki) came out at 4.89 µM.
Regarding `O=c1[nH]c2cc(F)c(F)c(F)c2[nH]c1=O` [F F F H, 5,6,7-Trifluoro-1,4-dihydro-2,3-quinoxalinedione], the inhibition constant (Ki) at glycine binding site (Table III, read-out: Ki) was found to be 2.97 µM. Besides, in the assay with mice (iv, Table III, i.v. injection), the ED50 lay in the range of 4 to 5 mg/kg. Besides, in the assay on mice (Table IV, i.v.), the ED100 lay in the range of 15 to 20 mg/kg, the “ED50 (MES)” value fell in the range of 4 to 5 mg/kg and the “IV peak of action” value is listed as 2 min. Besides, the “% protection after 60 min.” value in the assay on mice (i.v., 10 mg/kg) came out at 0%. In addition, in the assay with mice (i.v., after 60 min), the “protection against MES after 60 min.” value is recorded as “no more protection was observed”.
As to `O=c1[nH]c2cc(F)c(F)cc2[nH]c1=O` [H F F H, 6,7-Difluoro-1,4-dihydro-2,3-quinoxalinedione], the Ki on glycine binding site (Table III, read-out: Ki) came to 8.2 µM. For the same molecule, the median effective dose (ED50) with mice (iv, Table III, i.v. injection) worked out at 15 mg/kg.
On the same counts, the results for `O=c1[nH]c2cc(F)c(Br)c([N+](=O)[O-])c2[nH]c1=O` [NO2 Br F H, 6-Bromo-7-Fluoro-5-nitro-1,4-dihydroquinoxaline-2,3-dione] are 0.043 µM and 3.5 mg/kg.
With `O=c1[nH]c2cc(Cl)c(Cl)c([N+](=O)[O-])c2[nH]c1=O` [6,7-dichloro-5-nitro-1,4-dihydroquinoxaline-2,3-dione, reference compound], in the assay on mice (Table IV, i.v.), the “ED50 (MES)” value was 4 to 5 mg/kg, the “ED100 (MES)” value lay within 7 to 10 mg/kg and the “IV peak of action” value was determined as 5 min. Besides, the “% protection after 60 min.” value in the assay on mice (i.v., 10 mg/kg) is on record as 55%. Besides, the “ED50 as an anticonvulsant in the MES experiment in mice” value in the assay on mice (route not stated) was in the range of 4 to 5 mg/kg.
For the molecule `O=c1[nH]c2cc(C(F)(F)F)cc([N+](=O)[O-])c2[nH]c1=O` [NO2 H CF3 H, 7-trifluoromethyl-5-nitro-1,4-dihydroquinoxaline-2,3-dione], at glycine binding site (Table IV, read-out: Ki), the Ki was 0.095 µM. Moreover, in the assay with mice (Table IV, i.v.), the ED100 was found to be 40 mg/kg, the 50% effective dose (ED50) turned out to be 17 mg/kg and the “IV peak of action” value came to 30 min. Besides, in the assay on mice (i.v., 40 mg/kg), the “% protection after 60 min.” value is listed as 62%.
Take `Oc1nc2ccccc2nc1O` [H, reference compound]: the Ki at glycine binding site (Table I, read-out: Ki) is 2.47 µM.
For the molecule `O=c1[nH]c2ccc(C(F)(F)F)cc2[nH]c1=O` [CF3, reference compound], the Ki on glycine binding site (Table I, read-out: Ki) stood at 0.36 µM.
